Assay results as given in PubChem BioAssay AID2060623 (Molecular Pharmacology Branch, DTP, NCI, 2025).
Values joined by “and” are separate entries in the source; they are usually repeats but may differ in a detail not shown here. Equal entries are not always repeated.

Tested on: 227483-062-R1-J1-PDC complex spheroids with HUVEC/MSC, viability
Test: Anticancer human tumor 227483-062-R1-J1-PDC patient-derived pancreatic carcinoma cell line growth inhibition [CLK]
Conditions: for viability, T/C: stronger effect = lower value
In short: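 Multi-cell-type spheroids combined patient-derived tumor cells with HUVEC endothelial cells and human mesenchymal stem cells. Paired agents were dosed in half-log steps down from about clinical Cmax, or from 10 microM where Cmax was unknown.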

[1] = curve of first compound, second compound 0.0316 µM
[2] = curve of first compound, second compound 0.1 µM
[3] = curve of first compound, second compound 0.316 µM
[4] = curve of first compound, second compound 1 µM
[5] = curve of first compound, second compound 3.16 µM
[6] = curve of first compound, second compound 10 µM
[7] = second compound 0.0316 µM, first compound 0.0316 µM
[8] = second compound 0.0316 µM, first compound 0.1 µM
[9] = second compound 0.0316 µM, first compound 0.316 µM
[10] = second compound 0.0316 µM, first compound 1 µM
[11] = second compound 0.0316 µM, first compound 3.16 µM
[12] = second compound 0.0316 µM, first compound 10 µM
[13] = second compound 0.1 µM, first compound 0.0316 µM
[14] = second compound 0.1 µM, first compound 0.1 µM
[15] = second compound 0.1 µM, first compound 0.316 µM
[16] = second compound 0.1 µM, first compound 1 µM
[17] = second compound 0.1 µM, first compound 3.16 µM
[18] = second compound 0.1 µM, first compound 10 µM
[19] = second compound 0.316 µM, first compound 0.0316 µM
[20] = second compound 0.316 µM, first compound 0.1 µM
[21] = second compound 0.316 µM, first compound 0.316 µM
[22] = second compound 0.316 µM, first compound 1 µM
[23] = second compound 0.316 µM, first compound 3.16 µM
[24] = second compound 0.316 µM, first compound 10 µM
[25] = second compound 1 µM, first compound 0.0316 µM
[26] = second compound 1 µM, first compound 0.1 µM
[27] = second compound 1 µM, first compound 0.316 µM
[28] = second compound 1 µM, first compound 1 µM
[29] = second compound 1 µM, first compound 3.16 µM
[30] = second compound 1 µM, first compound 10 µM
[31] = second compound 3.16 µM, first compound 0.0316 µM
[32] = second compound 3.16 µM, first compound 0.1 µM
[33] = second compound 3.16 µM, first compound 0.316 µM
[34] = second compound 3.16 µM, first compound 1 µM
[35] = second compound 3.16 µM, first compound 3.16 µM
[36] = second compound 3.16 µM, first compound 10 µM
[37] = second compound 10 µM, first compound 0.0316 µM
[38] = second compound 10 µM, first compound 0.1 µM
[39] = second compound 10 µM, first compound 0.316 µM
[40] = second compound 10 µM, first compound 1 µM
[41] = second compound 10 µM, first compound 3.16 µM
[42] = second compound 10 µM, first compound 10 µM
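Further: spheroids exposed to compounds for seven days before readout.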
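Wherever viability, T/C is given: percent of DMSO vehicle control luminescence as 100% viability.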

Structure (SMILES): C#Cc1c(F)ccc2cc(O)cc(-c3ncc4c(N5CC6CCC(C5)N6)nc(OCC56CCCN5CC(F)C6)nc4c3F)c12 (stereo not drawn) + CNC(=O)c1ccc(Nc2nc(OC3CCCC3)c3c(-c4ccc5nc(C)oc5c4)c[nH]c3n2)c(OC)c1
- IC50 [1]: > 10000 nM
- IC50 [2]: > 10000 nM
- IC50 [3]: > 10000 nM
- IC50 [4]: 5620 nM
- IC50 [5]: 301 nM
- IC50 [6]: < 31.6 nM
- viability, T/C [7]: 101%
- viability, T/C [8]: 110%
- viability, T/C [9]: 112%
- viability, T/C [10]: 131%
- viability, T/C [11]: 122%
- viability, T/C [12]: 87.7%
- viability, T/C [13]: 96.2%
- viability, T/C [14]: 120%
- viability, T/C [15]: 116%
- viability, T/C [16]: 111%
- viability, T/C [17]: 127%
- viability, T/C [18]: 68.5%
- viability, T/C [19]: 106%
- viability, T/C [20]: 97.7%
- viability, T/C [21]: 94.8%
- viability, T/C [22]: 100%
- viability, T/C [23]: 87.8%
- viability, T/C [24]: 58.9%
- viability, T/C [25]: 78.3%
- viability, T/C [26]: 71.9%
- viability, T/C [27]: 74.7%
- viability, T/C [28]: 61.9%
- viability, T/C [29]: 61.1%
- viability, T/C [30]: 41.6%
- viability, T/C [31]: 49.2%
- viability, T/C [32]: 57.4%
- viability, T/C [33]: 51%
- viability, T/C [34]: 41.9%
- viability, T/C [35]: 43.8%
- viability, T/C [36]: 33.5%
- viability, T/C [37]: 42.1%
- viability, T/C [38]: 38%
- viability, T/C [39]: 43.7%
- viability, T/C [40]: 34.6%
- viability, T/C [41]: 34.8%
- viability, T/C [42]: 28.3%

Structure (SMILES): C#Cc1c(F)ccc2cc(O)cc(-c3ncc4c(N5CC6CCC(C5)N6)nc(OCC56CCCN5CC(F)C6)nc4c3F)c12 (stereo not drawn)
- viability, T/C (compound 0.0316 µM): 102% and 90.9%
- viability, T/C (compound 0.1 µM): 93.7% and 102%
- viability, T/C (compound 0.316 µM): 120% and 105%
- viability, T/C (compound 1 µM): 130% and 104%
- viability, T/C (compound 3.16 µM): 106% and 124%
- viability, T/C (compound 10 µM): 98.6% and 78.4%
- IC50 (curve of compound): > 10000 nM

Structure (SMILES): CC(C)CC(NC(=O)C(Cc1ccccc1)NC(=O)c1cnccn1)B(O)O (stereo not drawn)
- viability, T/C (compound 0.000949 µM): 86.6% and 81.9%
- viability, T/C (compound 0.003 µM): 2.59% and 1.33%
- viability, T/C (compound 0.00949 µM): 0.56% and 0.57%
- viability, T/C (compound 0.03 µM): 2.03% and 0.48%
- viability, T/C (compound 0.0949 µM): 0.64% and 0.38%
- viability, T/C (compound 0.3 µM): 0.96% and 0.35%
- IC50 (curve of compound): 1.57 nM and 1.5 nM

Structure (SMILES): COc1cccc2c1C(=O)c1c(O)c3c(c(O)c1C2=O)CC(O)(C(=O)CO)CC3OC1CC(N)C(O)C(C)O1 (stereo not drawn) + CNC(=O)c1ccc(Nc2nc(OC3CCCC3)c3c(-c4ccc5nc(C)oc5c4)c[nH]c3n2)c(OC)c1
- IC50 [1]: 277 nM
- IC50 [2]: 229 nM
- IC50 [3]: 177 nM
- IC50 [4]: 114 nM
- IC50 [5]: < 31.6 nM
- IC50 [6]: < 31.6 nM
- viability, T/C [7]: 84.4%
- viability, T/C [8]: 91.2%
- viability, T/C [9]: 43.6%
- viability, T/C [10]: 19.9%
- viability, T/C [11]: 1.83%
- viability, T/C [12]: 10.3%
- viability, T/C [13]: 81.2%
- viability, T/C [14]: 79.9%
- viability, T/C [15]: 38.1%
- viability, T/C [16]: 15%
- viability, T/C [17]: 2.41%
- viability, T/C [18]: 10.7%
- viability, T/C [19]: 81.7%
- viability, T/C [20]: 66.2%
- viability, T/C [21]: 33.8%
- viability, T/C [22]: 9.76%
- viability, T/C [23]: 2.28%
- viability, T/C [24]: 9.14%
- viability, T/C [25]: 66.9%
- viability, T/C [26]: 53.5%
- viability, T/C [27]: 20.1%
- viability, T/C [28]: 4.28%
- viability, T/C [29]: 2.52%
- viability, T/C [30]: 5.99%
- viability, T/C [31]: 45.1%
- viability, T/C [32]: 35.9%
- viability, T/C [33]: 11.5%
- viability, T/C [34]: 2.71%
- viability, T/C [35]: 3.57%
- viability, T/C [36]: 5.5%
- viability, T/C [37]: 41.7%
- viability, T/C [38]: 28.1%
- viability, T/C [39]: 11.3%
- viability, T/C [40]: 2.5%
- viability, T/C [41]: 3.15%
- viability, T/C [42]: 6.7%
